Consider 17 molecules from paper PMC11841048 (ACS Infectious Diseases, 2025).

Test [1] concerns the target T1, BaIMPDH (wild-type) (Bacillus anthracis, UniProt A0A6L8P2U9). The experiment in a line: biochemical.
The target of test [2] is T1, BaIMPDH (wild-type). The test is described as follows: biochemical. To be noted: Ki,app.
Test [3] has as its target T1, BaIMPDH (wild-type). The experiment in a line: biochemical. The format is biochemical.
A further test deals with BaIMPDH (Bacillus anthracis, UniProt A0A6L8P2U9). The experiment in a line: biochemical. The format is biochemical.
BaIMPDH, sequence (A0A6L8P2U9 221-487, added parts left off): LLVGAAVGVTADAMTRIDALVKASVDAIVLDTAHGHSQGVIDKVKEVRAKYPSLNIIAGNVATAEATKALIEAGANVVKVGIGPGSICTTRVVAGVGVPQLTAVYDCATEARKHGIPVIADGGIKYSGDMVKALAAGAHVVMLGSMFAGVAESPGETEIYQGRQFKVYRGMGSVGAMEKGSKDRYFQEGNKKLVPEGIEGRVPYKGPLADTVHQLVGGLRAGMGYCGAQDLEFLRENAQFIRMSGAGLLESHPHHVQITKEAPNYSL
The test system of test [4] is BaIMPDH (wild-type). As to conditions: cited from earlier work.
In test [5] the target is T1, BaIMPDH (wild-type). The format is biochemical.
The target in the next test is CpIMPDH (Cryptosporidium parvum, UniProt Q8T6T2). The test is described as follows: biochemical.
CpIMPDH, sequence (Q8T6T2 whole entry): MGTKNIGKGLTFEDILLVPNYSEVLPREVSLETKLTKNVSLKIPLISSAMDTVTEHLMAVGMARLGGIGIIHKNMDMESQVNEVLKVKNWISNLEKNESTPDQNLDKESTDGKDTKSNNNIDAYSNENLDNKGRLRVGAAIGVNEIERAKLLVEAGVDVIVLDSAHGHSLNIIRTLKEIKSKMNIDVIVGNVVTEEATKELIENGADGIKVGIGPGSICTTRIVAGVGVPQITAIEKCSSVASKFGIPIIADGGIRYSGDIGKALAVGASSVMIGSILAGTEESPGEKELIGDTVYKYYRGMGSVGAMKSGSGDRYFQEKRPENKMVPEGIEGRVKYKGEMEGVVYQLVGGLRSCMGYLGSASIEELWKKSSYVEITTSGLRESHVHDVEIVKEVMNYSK
A further test deals with SpIMPDH (Streptococcus pyogenes, UniProt P0C0H6). The experiment in a line: biochemical.
SpIMPDH, sequence (P0C0H6 whole entry): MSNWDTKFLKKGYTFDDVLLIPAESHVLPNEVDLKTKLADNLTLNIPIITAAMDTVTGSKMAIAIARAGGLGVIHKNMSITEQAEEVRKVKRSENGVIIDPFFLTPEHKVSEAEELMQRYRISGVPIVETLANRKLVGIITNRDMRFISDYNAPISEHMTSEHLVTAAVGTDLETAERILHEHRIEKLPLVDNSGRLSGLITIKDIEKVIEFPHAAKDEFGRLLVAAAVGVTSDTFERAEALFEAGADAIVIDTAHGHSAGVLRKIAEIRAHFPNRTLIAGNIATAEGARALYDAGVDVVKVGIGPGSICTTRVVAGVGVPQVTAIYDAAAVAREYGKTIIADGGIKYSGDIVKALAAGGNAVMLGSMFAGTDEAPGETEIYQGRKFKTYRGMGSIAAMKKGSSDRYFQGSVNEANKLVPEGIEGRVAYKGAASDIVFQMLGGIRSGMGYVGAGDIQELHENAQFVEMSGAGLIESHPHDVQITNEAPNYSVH
Another test has as its target SaIMPDH (Staphylococcus aureus, UniProt Q6GJQ7). The test is described as follows: biochemical.
The next test deals with CjIMPDH (Campylobacter jejuni, UniProt Q0P9J4, DEL92-194/T195G). The test is described as follows: biochemical. To be noted: Ki,app.
For a further test, the system named is Ba-, Cj-, and ClpIMPDH. The format is biochemical.
Test [6] concerns the target T1, BaIMPDH (wild-type). The experiment in a line: biochemical. The source holds these as a separate data set.
Setting [7] is: k–9/k9, inhibitor dissociation constant from E-XMP*.
The mark [8] stands for this setting: k–8/k8, inhibitor dissociation constant from E·IMP.

“And” between values parts separate entries of the source, which are not always exact repeats. Equal values may be shown once. Read-outs that look alike come from different tables or passages of the source.

T1 sequence (A0A6L8P2U9 221-487, added parts left off): as the sequence (A0A6L8P2U9 221-487, added parts left off) above
SaIMPDH, sequence (Q6GJQ7 whole entry): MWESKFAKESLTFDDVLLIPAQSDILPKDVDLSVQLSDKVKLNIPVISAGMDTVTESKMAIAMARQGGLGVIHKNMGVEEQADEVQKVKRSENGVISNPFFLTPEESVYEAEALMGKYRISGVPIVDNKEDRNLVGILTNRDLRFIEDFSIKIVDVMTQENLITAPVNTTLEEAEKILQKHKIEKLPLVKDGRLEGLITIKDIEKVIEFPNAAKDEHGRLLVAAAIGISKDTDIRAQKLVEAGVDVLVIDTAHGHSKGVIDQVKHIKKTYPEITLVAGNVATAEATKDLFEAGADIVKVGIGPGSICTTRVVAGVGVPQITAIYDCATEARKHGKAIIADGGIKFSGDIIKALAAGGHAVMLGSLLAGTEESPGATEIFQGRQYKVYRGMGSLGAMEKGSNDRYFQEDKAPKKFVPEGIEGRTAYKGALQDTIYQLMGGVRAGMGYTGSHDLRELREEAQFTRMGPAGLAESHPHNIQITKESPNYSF

Take `C[C@@H](Oc1cc[n+]([O-])c2ccccc12)c1cn(-c2ccc(Cl)cc2)nn1` [A110]: the Kd on BaIMPDH (wild-type) [1] (setting [7]) amounted to 0.065 µM; on BaIMPDH (wild-type) [3] (k–8/k8), 1.7 µM; at BaIMPDH (wild-type) [3] (k–9/k9), 0.085 µM. Moreover, on BaIMPDH (wild-type) [2], the Ki is 0.081 µM and 0.059 µM. For the same molecule, the kon at 6 µM on BaIMPDH (wild-type) [3] (read-out: k8 (inhibitor association with E·IMP)) is 9.33e+06 M⁻¹ s⁻¹. Also, the kon at BaIMPDH (wild-type) [3] (read-out: k9 (inhibitor association with E-XMP*)) came to 3.52e+06 M⁻¹ s⁻¹. In addition, the koff on BaIMPDH (wild-type) [3] (read-out: k–8 (inhibitor dissociation from E·IMP·I)) turned out to be 15.6 s⁻¹; at BaIMPDH (wild-type) [3] (read-out: k–9 (inhibitor dissociation from E-XMP*·I)) it was 0.3 s⁻¹.
Consider `Nc1ncnc2c1ncn2[C@@H]1O[C@H](COP(=O)(O)OP(=O)(O)O)[C@@H](O)[C@H]1O` [ADP], for which the Ki at BaIMPDH (read-out: Ki,app) came out at 6200 µM.
As for `O=C(Cn1c(-c2ccccn2)nc2ccccc21)Nc1ccc2ccccc2c1` [C91], the k-9 on BaIMPDH (wild-type) [1] is listed as 0.0976. Besides, the Kd on BaIMPDH (wild-type) [1] (setting [8]) was 0.28 µM; on BaIMPDH (wild-type) [1] (setting [7]), 0.11 µM. Also, the koff was determined as 0.239 s⁻¹ at BaIMPDH (wild-type) [1] (read-out: k-8) and 0.0844 s⁻¹ on BaIMPDH (wild-type) [1] (read-out: k-9). Also, the “fold more potent inhibitor of BaIMPDH” value with BaIMPDH (wild-type) [4] was 10 fold.
For `Cn1nc(CC(=O)Nc2ccc3oc4c(c3c2)CCCC4)c2ccccc2c1=O` [D67], the figures for the Kd on BaIMPDH (wild-type) [1] (setting [8]) and on BaIMPDH (wild-type) [1] (setting [7]) were 1.1 µM and 0.42 µM, respectively. Moreover, on BaIMPDH (wild-type) [2], the Ki was 0.698 µM and 0.671 µM.
On to `NC(=O)C1=CN([C@@H]2O[C@H](COP(=O)(O)OP(=O)(O)OC[C@H]3O[C@@H](n4cnc5c(N)ncnc54)[C@H](O)[C@@H]3O)[C@@H](O)[C@H]2O)C=CC1` [NADH], for which, at BaIMPDH (wild-type) [3], the “k4 (NADH release)” value is reported as greater than 446 s^–1 and the “k–4 (NADH association)” value is given as greater than 3.8 μM^–1 s^–1. The Kd at BaIMPDH (wild-type) [3] (read-out: k4/k–4) was 120 µM.
In general, Km refers to the substrate concentration at which the rate is half of its maximum. As to `NC(=O)c1ccc[n+]([C@@H]2O[C@H](COP(=O)([O-])OP(=O)(O)OC[C@H]3O[C@@H](n4cnc5c(N)ncnc54)[C@H](O)[C@@H]3O)[C@@H](O)[C@H]2O)c1` [NAD^+], the “apparent Michaelis constant for NAD+, KmB” value at BaIMPDH (wild-type) [5] was 683 [ 601 , 779 ] µM. At BaIMPDH (wild-type) [5] (read-out: Ki(NAD^+)), the Ki worked out at 9600 ± 2100 µM. Besides, the Michaelis-Menten constant (Km) on BaIMPDH (wild-type) [5] (read-out: Km(NAD^+)) worked out at 590 ± 100 µM. Also, on BaIMPDH (wild-type) [3], the “k2 (NAD^+ association with E·IMP)” value was 0.0309 μM^–1 s^–1, the “k7 (NAD^+ association with E-XMP*)” value is 0.00398 μM^–1 s^–1, the “k–2 (NAD^+ dissociation from E·IMP·NAD^+)” value is listed as 11.7 s^–1 and the “k–7 (NAD^+ dissociation from E-XMP*·NAD^+)” value came out at 31.8 s^–1. The Kd on BaIMPDH (wild-type) [3] (read-out: k–2/k2) amounted to 380 µM. Moreover, on BaIMPDH (wild-type) [3] (read-out: k–7/k7), the Kd worked out at 8000 µM.
`C/C(=N\O)c1cccc(C(C)(C)NC(=O)Nc2ccc(Cl)c(C(N)=O)c2)c1` [P32]: the Ki on CpIMPDH was 0.005 ± 0.002 µM; on BaIMPDH (wild-type) [2], 0.052 µM and 0.047 µM; on SpIMPDH, 0.164 ± 0.01 µM; at SaIMPDH, 0.023 ± 0.01 µM; at CjIMPDH, 0.095 ± 0.005 µM.
For the molecule `C/C(=N\OCCN)c1cccc(C(C)(C)NC(=O)Nc2ccc(Cl)c([N+](=O)[O-])c2)c1` [P131], the Kd on BaIMPDH (wild-type) [1] (setting [8]) was 0.11 µM; at BaIMPDH (wild-type) [1] (setting [7]), 0.061 µM. On BaIMPDH (wild-type) [2], the Ki was 0.094 µM.
Regarding `C=C(C)c1cccc(C(C)(C)NC(=O)Nc2ccc(Cl)c(NC3OCC(O)C(O)C3O)c2)c1` (stereo not shown) [P176], the Ki at BaIMPDH (wild-type) [2] is 0.016 µM; at CjIMPDH it was 0.177 µM and 0.077 µM.
As for `C=C(C)c1cccc(C(C)(C)NC(=O)Nc2ccc(Cl)c(OC3OC(CO)C(O)C3O)c2)c1` (stereo not shown) [P178], the Ki was 0.012 µM at BaIMPDH (wild-type) [2] and 0.097 µM at CjIMPDH. For the same molecule, in the test with Ba-, Cj-, and ClpIMPDH, the “difference in affinity across the three enzymes” value was greater than 5 fold.
Regarding `C/C(=N\O)c1cccc(C(C)(C)NC(=O)Nc2ccc(Cl)c(-c3nc(C(F)(F)F)cs3)c2)c1` [P182], the figures for the Ki on BaIMPDH (wild-type) [2] and at CjIMPDH were 0.008 µM and 0.032 ± 0.006 µM, respectively.
For the molecule `CC(C)(NC(=O)Nc1ccc(Cl)cc1)c1cccc(/C(N)=N/O)c1` [P200], the Ki on BaIMPDH (wild-type) [2] was found to be 0.016 µM; at CjIMPDH, 0.145 ± 0.04 µM. Moreover, the “difference in affinity across the three enzymes” value in the test on Ba-, Cj-, and ClpIMPDH was greater than 5 fold.
Take `C=C(C)c1cccc(C(C)(C)NC(=O)Nc2ccc(Cl)c(NC3OC[C@@H](O)[C@H](O)[C@@H]3O)c2)c1` (stereo partly shown) [P221]: the Ki at BaIMPDH (wild-type) [2] stood at 0.02 µM; at CjIMPDH, 0.046 µM.
For the molecule `C=C(C)c1cccc(C(C)(C)NC(=O)Nc2ccc(Cl)c(OCC(=O)O)c2)c1` [P225], the Ki at BaIMPDH (wild-type) [2] is 0.004 µM and 0.00043 µM; on CjIMPDH it was 0.02 ± 0.01 µM.
Turning to `C[C@H](Oc1cccc2ccccc12)C(=O)Nc1ccc2oc(-c3ccncc3)nc2c1` [Q21], at BaIMPDH (wild-type) [1], the “preference for E-XMP* over E·IMP” value is recorded as “same affinity for both enzyme forms”. The values for the Kd at BaIMPDH (wild-type) [1] (setting [8]) and at BaIMPDH (wild-type) [1] (setting [7]) were 0.038 µM and 0.043 µM, respectively. Further, the Ki on BaIMPDH (wild-type) [2] is 0.063 µM and 0.023 µM.
`O=c1[nH]c(=O)c2ncn([C@@H]3O[C@H](COP(=O)(O)O)[C@@H](O)[C@H]3O)c2[nH]1` [XMP, xanthosine 5′-monophosphate] gave a Kd on BaIMPDH (wild-type) [6] of 404 µM.
For the molecule `NC(=O)c1csc([C@@H]2O[C@H](CO)[C@@H](O)[C@H]2O)n1` [tiazofurin], at BaIMPDH, the Ki was 620 µM.
